# In ChEMBL document CHEMBL2074482 (J Pharmacol Sci, 2004):
# What was measured:
# [1] = target: T1, Solute carrier family 22 member 11 (Homo sapiens, UniProt Q9NSA0); experiment: TP_TRANSPORTER: inhibition of ES uptake (ES: 50nM) in hOAT4-expressing S2 cells; assay type: functional, cell-based
# T1 sequence (Q9NSA0 whole entry): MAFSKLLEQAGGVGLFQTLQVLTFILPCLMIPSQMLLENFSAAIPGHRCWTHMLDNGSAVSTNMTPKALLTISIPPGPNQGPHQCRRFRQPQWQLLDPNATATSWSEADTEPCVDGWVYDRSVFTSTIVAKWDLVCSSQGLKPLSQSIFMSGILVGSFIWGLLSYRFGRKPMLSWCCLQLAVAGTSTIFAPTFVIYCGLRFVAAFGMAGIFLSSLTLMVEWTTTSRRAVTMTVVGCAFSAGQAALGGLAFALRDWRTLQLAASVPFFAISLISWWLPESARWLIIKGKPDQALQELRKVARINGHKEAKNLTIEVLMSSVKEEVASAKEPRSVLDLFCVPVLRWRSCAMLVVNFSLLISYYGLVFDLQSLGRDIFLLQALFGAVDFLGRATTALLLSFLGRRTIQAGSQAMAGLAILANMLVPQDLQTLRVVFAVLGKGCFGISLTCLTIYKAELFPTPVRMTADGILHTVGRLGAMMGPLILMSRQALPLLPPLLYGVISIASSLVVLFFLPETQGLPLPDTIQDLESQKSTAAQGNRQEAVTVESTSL
# [2] = target: T2, Organic anion transporter 3 (Homo sapiens, UniProt Q8TCC7); experiment: TP_TRANSPORTER: inhibition of ES uptake (ES: 50nM) in hOAT3-expressing S2 cells; assay type: functional, cell-based
# T2 sequence (Q8TCC7 whole entry): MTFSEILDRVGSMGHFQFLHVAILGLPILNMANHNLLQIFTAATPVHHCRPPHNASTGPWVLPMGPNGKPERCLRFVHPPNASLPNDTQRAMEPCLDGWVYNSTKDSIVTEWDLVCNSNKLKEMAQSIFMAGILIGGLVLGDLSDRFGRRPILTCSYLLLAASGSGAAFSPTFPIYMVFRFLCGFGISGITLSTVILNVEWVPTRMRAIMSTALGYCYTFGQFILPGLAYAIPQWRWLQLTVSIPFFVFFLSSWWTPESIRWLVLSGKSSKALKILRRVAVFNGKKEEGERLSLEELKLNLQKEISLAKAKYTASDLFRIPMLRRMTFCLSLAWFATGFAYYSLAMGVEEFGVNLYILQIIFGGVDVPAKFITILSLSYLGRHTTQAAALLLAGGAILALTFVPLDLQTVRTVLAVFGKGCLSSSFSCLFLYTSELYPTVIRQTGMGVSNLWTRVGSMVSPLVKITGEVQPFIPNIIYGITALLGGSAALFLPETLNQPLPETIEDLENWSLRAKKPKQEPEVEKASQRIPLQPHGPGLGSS
# [3] = target: T3, Organic anion transporter 3 (Rattus norvegicus, UniProt Q9R1U7); experiment: TP_TRANSPORTER: inhibition of ES uptake (ES: 50nM) in rOAT3-expressing S2 cells; assay type: functional, cell-based
# T3 sequence (Q9R1U7 whole entry): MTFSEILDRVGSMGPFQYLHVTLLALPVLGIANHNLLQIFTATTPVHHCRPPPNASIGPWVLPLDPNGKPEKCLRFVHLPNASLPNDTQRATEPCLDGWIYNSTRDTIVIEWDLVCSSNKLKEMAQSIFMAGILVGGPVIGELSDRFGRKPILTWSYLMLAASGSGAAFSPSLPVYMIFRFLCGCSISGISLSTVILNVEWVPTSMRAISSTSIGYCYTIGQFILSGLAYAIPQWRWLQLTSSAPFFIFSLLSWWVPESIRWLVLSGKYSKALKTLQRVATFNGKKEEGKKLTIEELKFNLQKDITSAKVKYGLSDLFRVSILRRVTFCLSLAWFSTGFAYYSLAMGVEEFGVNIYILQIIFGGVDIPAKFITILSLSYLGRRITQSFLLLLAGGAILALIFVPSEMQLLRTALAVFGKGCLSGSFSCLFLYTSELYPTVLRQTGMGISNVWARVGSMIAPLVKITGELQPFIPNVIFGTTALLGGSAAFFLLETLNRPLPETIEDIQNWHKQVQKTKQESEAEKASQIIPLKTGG
# [4] = target: T4, Solute carrier family 22 member 6 (Rattus norvegicus, UniProt O35956)
# T4 sequence (O35956 whole entry): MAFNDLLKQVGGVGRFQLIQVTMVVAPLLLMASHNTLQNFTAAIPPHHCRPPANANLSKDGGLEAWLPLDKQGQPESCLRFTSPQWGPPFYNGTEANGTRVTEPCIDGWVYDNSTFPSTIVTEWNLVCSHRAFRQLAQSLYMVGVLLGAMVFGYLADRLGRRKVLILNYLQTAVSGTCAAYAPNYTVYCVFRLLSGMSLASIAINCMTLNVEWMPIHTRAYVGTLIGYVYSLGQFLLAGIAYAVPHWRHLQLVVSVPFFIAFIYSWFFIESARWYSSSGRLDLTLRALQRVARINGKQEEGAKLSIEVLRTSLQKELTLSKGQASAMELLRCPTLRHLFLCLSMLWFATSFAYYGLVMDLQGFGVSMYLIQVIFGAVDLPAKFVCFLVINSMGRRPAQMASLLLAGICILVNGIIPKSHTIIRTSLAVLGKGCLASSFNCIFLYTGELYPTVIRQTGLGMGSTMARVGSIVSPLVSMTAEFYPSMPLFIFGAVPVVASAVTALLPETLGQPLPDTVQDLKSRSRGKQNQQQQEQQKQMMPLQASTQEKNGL
# [5] = target: T5, Solute carrier family 22 member 7 (Homo sapiens, UniProt Q9Y694); experiment: TP_TRANSPORTER: inhibition of PGF2alpha uptake (PGF2: 50nM) in hOAT2-expressing S2 cells; assay type: functional, cell-based
# T5 sequence (Q9Y694 whole entry): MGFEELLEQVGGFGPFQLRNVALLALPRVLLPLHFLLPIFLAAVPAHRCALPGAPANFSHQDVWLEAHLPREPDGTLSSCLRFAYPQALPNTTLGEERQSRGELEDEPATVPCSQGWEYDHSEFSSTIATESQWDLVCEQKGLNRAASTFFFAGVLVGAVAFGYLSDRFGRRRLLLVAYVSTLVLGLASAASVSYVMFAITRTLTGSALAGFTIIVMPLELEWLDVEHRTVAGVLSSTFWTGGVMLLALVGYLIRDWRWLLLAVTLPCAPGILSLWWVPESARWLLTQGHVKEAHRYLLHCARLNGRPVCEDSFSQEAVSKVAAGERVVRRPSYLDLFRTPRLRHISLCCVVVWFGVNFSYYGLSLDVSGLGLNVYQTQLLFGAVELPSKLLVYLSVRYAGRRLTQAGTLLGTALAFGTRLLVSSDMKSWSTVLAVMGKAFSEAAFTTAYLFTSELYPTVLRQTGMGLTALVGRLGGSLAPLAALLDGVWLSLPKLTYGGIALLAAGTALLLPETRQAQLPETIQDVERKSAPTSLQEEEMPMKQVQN
# [6] = target: T6, Solute carrier family 22 member 7 (Rattus norvegicus, UniProt Q5RLM2); experiment: TP_TRANSPORTER: inhibition of PGF2alpha uptake (PGF2: 50nM) in rOAT2-expressing S2 cells; assay type: functional, cell-based
# T6 sequence (Q5RLM2 whole entry): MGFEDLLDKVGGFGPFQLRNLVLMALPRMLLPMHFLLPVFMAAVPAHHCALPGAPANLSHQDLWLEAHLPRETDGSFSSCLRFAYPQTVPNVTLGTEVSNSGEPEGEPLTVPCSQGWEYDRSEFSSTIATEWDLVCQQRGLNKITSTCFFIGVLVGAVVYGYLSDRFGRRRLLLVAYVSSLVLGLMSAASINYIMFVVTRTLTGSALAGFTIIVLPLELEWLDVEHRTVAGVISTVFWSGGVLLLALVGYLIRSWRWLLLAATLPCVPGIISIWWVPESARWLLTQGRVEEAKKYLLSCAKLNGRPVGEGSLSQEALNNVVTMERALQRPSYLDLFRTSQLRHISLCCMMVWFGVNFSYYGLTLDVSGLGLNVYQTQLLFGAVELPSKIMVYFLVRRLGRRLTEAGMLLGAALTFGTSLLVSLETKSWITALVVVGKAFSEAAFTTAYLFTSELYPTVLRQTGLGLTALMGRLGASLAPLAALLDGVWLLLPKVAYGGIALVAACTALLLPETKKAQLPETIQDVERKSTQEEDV
IC50 [1],IC50 [2],IC50 [3],IC50 [5],IC50 [6],SMILES,IC50 [4]
483 µM,9.92 µM,47.5 µM,,,O=C(O)CCNC(=O)c1ccccc1 [BETAMIPRON],
,249 µM,742 µM,,,CC1(C)C[C@@H]1C(=O)N/C(=C\CCCCSC[C@H](N)C(=O)O)C(=O)O [CILASTATIN],
591 µM,13.7 µM,15.6 µM,352 µM,449 µM,CC[C@H](C)C(=O)O[C@H]1C[C@H](O)C=C2C=C[C@H](C)[C@H](CC[C@@H](O)C[C@@H](O)CC(=O)O)[C@H]21 [PRAVASTATIN],
,,6.03 µM,668 µM,977 µM,CCCN(CCC)S(=O)(=O)c1ccc(C(=O)O)cc1 [PROBENECID],

SMILES,IC50 [1],IC50 [2],IC50 [3],IC50 [5],IC50 [6],IC50 [4]
CN/C(=N/CCSCc1nc[nH]c1C)NC#N [CIMETIDINE],> 2000 µM,92.4 µM,166 µM,,,> 2000 µM
